Results from ChEMBL document CHEMBL1136837, “Unified QSAR approach to antimicrobials. 4. Multi-target QSAR modeling and comparative multi-distance study of the giant components of antiviral drug-drug complex networks” (Bioorg Med Chem, 2009).

System: Human immunodeficiency virus 1
Experiment: Antiviral activity against HIV1
Format: functional, organism-based

SMILES: Cc1ncc([N+](=O)[O-])n1CCOC(c1ccccc1)c1ccc(Cl)c(Cl)c1 (stereo not drawn)
- IC50: 97 µM

SMILES: CCOC(=O)c1[nH]c2ccccc2c1S(=O)(=O)c1cc(Cl)ccc1N
- IC50: 200 µM

SMILES: Nc1nc(F)nc2c1ncn2[C@H]1S[C@@H](CO)C=C1F
- IC50: 11.5 µM

SMILES: CCOC(=O)c1cc2ccc(Cl)cc2n1S(=O)(=O)c1ccc(Cl)cc1
- IC50: 200 µM

SMILES: O=C(O)c1ccc2ccc(/C=C/c3cccnc3)nc2c1O
- IC50: 100 µM

SMILES: Nc1nc(O)c2ncn([C@@H]3CC(F)(F)[C@H](CO)O3)c2n1
- IC50: 100 µM

SMILES: CCOC(=O)c1[nH]c2c(Cl)cccc2c1S(=O)(=O)c1ccccc1N
- IC50: 200 µM

SMILES: CC1(C)Oc2ccc3ccc(=O)oc3c2[C@@H](OC(=O)[C@@]23CC[C@](C)(C(=O)O2)C3(C)C)[C@H]1OC(=O)[C@@]12CC[C@](C)(C(=O)O1)C2(C)C [DCK]
- IC50: 16.1 µM

SMILES: NNC(=O)c1[nH]c2ccc(Cl)cc2c1Sc1cc(Cl)ccc1N
- IC50: 13 µM

SMILES: CCn1cc(C(=O)/C=C(/O)C(=O)O)c2ccccc21
- IC50: 9 µM

SMILES: OC[C@H]1C=C(F)[C@@H](n2cnc3c(O)ncnc32)S1
- IC50: 15.5 µM

SMILES: C=C[C@@]1(CO)C=C[C@H](n2cc(C)c(=O)[nH]c2=O)O1
- IC50: 100 µM

SMILES: O=C1CSC(c2c(F)cccc2F)N1c1ccc(Cl)cn1 (stereo not drawn)
- IC50: 7.19 µM

SMILES: COc1ccc(Cn2nnnc2/C(O)=C/C(=O)c2c[nH]c3ccccc23)cc1
- IC50: 100 µM

SMILES: NC(=O)c1cn(S(=O)(=O)c2ccccc2)c2cc(Cl)ccc12
- IC50: 200 µM

SMILES: CC1(C)Oc2ccc3cc(CO)c(=O)oc3c2[C@@H](OC(=O)[C@@]23CC[C@](C)(C(=O)O2)C3(C)C)[C@H]1OC(=O)[C@@]12CC[C@](C)(C(=O)O1)C2(C)C
- IC50: 23 µM

SMILES: NC(=O)c1[nH]c2ccccc2c1Sc1cc(Cl)ccc1N
- IC50: 9 µM

SMILES: C=C(C)[C@@H]1CC[C@]2(C(=O)NCCCCCCCCCCC(=O)N[C@@H](CC(C)C)C(=O)OC)CC[C@]3(C)[C@H](CC[C@@H]4[C@@]5(C)CC[C@H](O)C(C)(C)[C@@H]5CC[C@]43C)[C@@H]12
- IC50: 32 µM

SMILES: O=C1CSC(c2c(Cl)cccc2Cl)N1c1cccnc1 (stereo not drawn)
- IC50: 95.1 µM

SMILES: O=C1CSC(c2c(F)cccc2Cl)N1c1cccc(Br)n1 (stereo not drawn)
- IC50: 0.064 µM

SMILES: Cn1cc(C(=O)/C=C(/O)C(=O)O)c2ccccc21
- IC50: 37 µM

SMILES: C=C(C)[C@@H]1CC[C@]2(C(=O)NCCCCCCCCCCC(=O)N[C@@H](CC(C)C)C(=O)O)CC[C@]3(C)[C@H](CC[C@@H]4[C@@]5(C)CC[C@H](O)C(C)(C)[C@@H]5CC[C@]43C)[C@@H]12
- IC50: 0.46 µM

SMILES: Nc1ncnc2c1ncn2C1C=CC(OCP(=O)(O)OP(=O)(O)OP(=O)(O)OP(=O)(O)COC2C=CC(n3cnc4c(N)ncnc43)C2)C1 (stereo not drawn)
- IC50: 2 µM

SMILES: NC(=O)O[C@@H]1Cc2ccccc2C1C1=C(O)[C@](Cc2ccccc2)(C[C@H](O)[C@H](Cc2ccccc2)NC(=O)O[C@H]2CCOC2)N=C1 (stereo partly drawn)
- IC50: 2 µM

SMILES: CCOC(=O)c1cc2ccccc2n1S(=O)(=O)c1ccccc1[N+](=O)[O-]
- IC50: 200 µM

SMILES: Nc1nc2c(ncn2[C@@H]2S[C@H](CO)C=C2F)c(=O)[nH]1
- IC50: 80.5 µM

SMILES: C=C(C)[C@@H]1CC[C@]2(C(=O)NCCCCCCCC(=O)N[C@@H](CC(C)C)[C@H](O)CC(=O)OCc3ccccc3)CC[C@]3(C)[C@H](CC[C@@H]4[C@@]5(C)CC[C@H](OC(C)=O)C(C)(C)[C@@H]5CC[C@]43C)[C@@H]12
- IC50: 28 µM

SMILES: Nc1nc2c(ncn2C2C=CC(OCP(=O)(O)OP(=O)(O)C(F)(F)P(=O)(O)O)C2)c(=O)[nH]1 (stereo not drawn)
- IC50: 25 µM

SMILES: CC(C)(C)c1ccc(S(=O)(=O)c2c(C(N)=O)[nH]c3ccc(Cl)cc23)cc1
- IC50: 0.13 µM

SMILES: C[C@H]1O[C@@H](n2c(Cl)c(C=O)c3cc(Cl)c(Cl)cc32)[C@H](O)[C@@H]1O
- IC50: 20 µM

SMILES: CC1(C)Oc2ccc3cc(CN)c(=O)oc3c2[C@@H](OC(=O)[C@@]23CC[C@](C)(C(=O)O2)C3(C)C)[C@H]1OC(=O)[C@@]12CC[C@](C)(C(=O)O1)C2(C)C
- IC50: 15.4 µM

SMILES: Cc1cn([C@@H]2S[C@H](CO)C=C2F)c(=O)nc1O
- IC50: 92.3 µM

SMILES: COC[C@@H](c1ccc(C(F)(F)F)cc1)N1CCN(C2(C)CCN(C(=O)c3c(C)ncnc3C)CC2)C[C@@H]1C [VICRIVIROC]
- IC50: 0.00052 µM

SMILES: C=C(C)[C@@H]1CC[C@]2(C(=O)NCCC(=O)N[C@@H](CC(C)C)C(=O)O)CC[C@]3(C)[C@H](CC[C@@H]4[C@@]5(C)CC[C@H](O)C(C)(C)[C@@H]5CC[C@]43C)[C@@H]12
- IC50: 39 µM

SMILES: C#C[C@@]1(CO)C=C[C@H](n2cc(C)c(=O)[nH]c2=O)O1 [CENSAVUDINE]
- IC50: 0.25 µM

SMILES: Nc1ncnc2c1ncn2C1C=CC(OCP(=O)(O)OP(=O)(O)C(Br)(Br)P(=O)(O)O)C1 (stereo not drawn)
- IC50: 1000 µM

SMILES: Nc1nc2c(ncn2C2C=CC(OCP(=O)(O)OP(=O)(O)OP(=O)(O)OP(=O)(O)COC3C=CC(n4cnc5c(N)ncnc54)C3)C2)c(=O)[nH]1 (stereo not drawn)
- IC50: 0.7 µM

SMILES: CCO/N=C(\c1ccc(Br)cc1)C1CCN(C2(C)CCN(C(=O)c3cccnc3C)CC2)CC1
- IC50: 0.0014 µM

SMILES: O=C(/C=C(\O)c1nnn[nH]1)c1c[nH]c2ccccc12
- IC50: 1.9 µM

SMILES: O=C(O)C(=C\c1ccc(O)c(O)c1)/C(=C\c1ccc(O)c(O)c1)C(=O)O
- IC50: 2.19 µM

SMILES: Cc1cc(=O)oc2c3c(c(CO)cc12)OC(C)(C)[C@H](OC(=O)[C@@]12CC[C@](C)(C(=O)O1)C2(C)C)[C@@H]3OC(=O)[C@@]12CC[C@](C)(C(=O)O1)C2(C)C
- IC50: 15 µM

SMILES: Cc1c(Cc2c(F)cccc2F)nc(SC2CCCC2)[nH]c1=O
- IC50: 0.08 µM

SMILES: C=C(C)[C@@H]1CC[C@]2(C(=O)NCCCCCCCC(=O)N[C@@H](CC(C)C)C(=O)O)CC[C@]3(C)[C@H](CC[C@@H]4[C@@]5(C)CC[C@H](O)C(C)(C)[C@@H]5CC[C@]43C)[C@@H]12
- IC50: 1.38 µM

SMILES: Cc1cn([C@@H]2CC(F)(F)[C@H](CO)O2)c(=O)nc1O
- IC50: 100 µM

SMILES: Cc1cc(C)nc(N2C(=O)CSC2c2c(F)cccc2Cl)c1 (stereo not drawn)
- IC50: 0.042 µM

SMILES: Nc1nc(O)c2ncn([C@H]3C=C(F)[C@H](CO)O3)c2n1
- IC50: 100 µM

SMILES: O=C(O)C(=O)CC(=O)c1cccc(Cc2ccccc2)c1
- IC50: 0.1 µM

SMILES: C=C(C)[C@@H]1CC[C@]2(C(=O)NCCCCCCCC(=O)O)CC[C@]3(C)[C@H](CC[C@@H]4[C@@]5(C)CC[C@H](O)C(C)(C)[C@@H]5CC[C@]43C)[C@@H]12
- IC50: 1 µM

SMILES: Nc1ncnc2c1ncn2[C@H]1C=C(F)[C@H](CO)O1
- IC50: 100 µM

SMILES: Nc1nc2c(ncn2C2C=CC(OCP(=O)(O)OP(=O)(O)C(F)(F)P(=O)(O)OP(=O)(O)COC3C=CC(n4cnc5c(N)ncnc54)C3)C2)c(=O)[nH]1 (stereo not drawn)
- IC50: 15 µM

SMILES: Cc1cccc(C)c1C(=O)N1CCC(C)(N2CCC(Cc3ccc(Cl)cc3)CC2)CC1
- IC50: 0.023 µM

SMILES: OC[C@@H]1O[C@H](n2cnc3c(O)ncnc32)C=C1F
- IC50: 100 µM

SMILES: COc1ccc2[nH]cc(C(=O)/C=C(\O)c3nnn[nH]3)c2c1
- IC50: 40 µM

SMILES: Nc1ccn([C@@H]2C=C(F)[C@H](CO)O2)c(=O)n1
- IC50: 0.089 µM

SMILES: Nc1ccn([C@H]2CC(F)(F)[C@H](CO)O2)c(=O)n1
- IC50: 100 µM

SMILES: CC(C)c1ccc(Sc2c(C(N)=O)[nH]c3ccc(Cl)cc23)cc1
- IC50: 1.9 µM

SMILES: O=c1cc(Cc2c(F)cccc2F)nc(NC2CCCC2)[nH]1
- IC50: 0.07 µM

SMILES: C[C@H]1O[C@@H](n2c(Cl)c(C#N)c3cc(Cl)c(Cl)cc32)[C@H](O)[C@@H]1O
- IC50: 32 µM

SMILES: Cc1c(CBr)c(=O)oc2c3c(ccc12)OC(C)(C)[C@H](OC(=O)[C@@]12CC[C@](C)(C(=O)O1)C2(C)C)[C@@H]3OC(=O)[C@@]12CC[C@](C)(C(=O)O1)C2(C)C
- IC50: 20.9 µM

SMILES: O=C(O)/C(O)=C/C(=O)c1cc(OCc2ccccc2)cc(OCc2ccccc2)c1
- IC50: 0.48 µM

SMILES: O=C(c1cccc(Cc2ccccc2)c1)c1ncc2cccnc2c1O
- IC50: 0.04 µM

SMILES: O=C(O)/C(O)=C/C(=O)c1c[nH]c2ccccc12
- IC50: 1.43 µM

SMILES: Cc1cc(C)cc(Sc2c(C(N)=O)[nH]c3ccc(Cl)cc23)c1
- IC50: 0.006 µM

SMILES: NC(=O)c1[nH]c2ccc(Cl)cc2c1S(=O)(=O)c1ccccc1 [L-737126]
- IC50: 2 µM

SMILES: Nc1ccn([C@@H]2CC(F)(F)[C@H](CO)O2)c(=O)n1
- IC50: 11.5 µM

SMILES: CC(=O)OCc1c(C)c2ccc3c(c2oc1=O)[C@@H](OC(=O)[C@@]12CC[C@](C)(C(=O)O1)C2(C)C)[C@@H](OC(=O)[C@@]12CC[C@](C)(C(=O)O1)C2(C)C)C(C)(C)O3
- IC50: 14.8 µM

SMILES: NNC(=O)c1[nH]c2ccc(Cl)cc2c1Sc1ccc(Cl)cc1
- IC50: 10 µM

SMILES: O=C(OC(C(=O)O)C(OC(=O)c1cccs1)C(=O)O)c1cccs1 (stereo not drawn)
- IC50: 10 µM

SMILES: Cc1cc(C)nc(N2C(=O)CSC2c2c(F)cccc2F)c1 (stereo not drawn)
- IC50: 0.059 µM

SMILES: CC1(C)Oc2ccc3cc(CBr)c(=O)oc3c2[C@@H](OC(=O)[C@@]23CC[C@](C)(C(=O)O2)C3(C)C)[C@H]1OC(=O)[C@@]12CC[C@](C)(C(=O)O1)C2(C)C
- IC50: 11.1 µM

SMILES: O=S(=O)(c1ccccc1)n1ccc2ccccc21
- IC50: 150 µM

SMILES: Cc1ncc([N+](=O)[O-])n1CCOC(c1ccccc1)c1ccc([N+](=O)[O-])cc1 (stereo not drawn)
- IC50: 5 µM

SMILES: Nc1nc(O)c2ncn([C@H]3CC(F)(F)[C@H](CO)O3)c2n1
- IC50: 100 µM

SMILES: NC(=O)c1[nH]c2ccc(Cl)cc2c1S(=O)(=O)c1cc(Cl)ccc1N
- IC50: 0.3 µM

SMILES: Cc1ccnc2c1NC(=O)c1cccnc1N2C1CC1 [NEVIRAPINE]
- IC50: 0.06 µM

SMILES: Cc1cc(/C=C/C#N)ccc1Oc1ccnc(Nc2ccc(C#N)cc2)n1
- IC50: 0.00063 µM

SMILES: Cc1c(C(C)c2c(F)cccc2F)nc(SC2CCCC2)[nH]c1=O (stereo not drawn)
- IC50: 0.005 µM

SMILES: Fc1cccc(F)c1Cn1c(-c2c(F)cccc2F)nc2ccccc21
- IC50: 1.7 µM

SMILES: Cc1cc(=O)oc2c3c(c(CBr)cc12)OC(C)(C)[C@H](OC(=O)[C@@]12CC[C@](C)(C(=O)O1)C2(C)C)[C@@H]3OC(=O)[C@@]12CC[C@](C)(C(=O)O1)C2(C)C
- IC50: 13.7 µM

SMILES: Nc1ccn([C@H]2O[C@H](CO)C=C2F)c(=O)n1
- IC50: 100 µM

SMILES: O=C1CSC(c2c(F)cccc2F)N1c1ccccn1 (stereo not drawn)
- IC50: 0.855 µM

SMILES: COC(=O)C(=O)CC(=O)c1cn(C)c2cc3c(cc12)OCO3
- IC50: 31 µM

SMILES: Nc1nc(=O)n([C@@H]2C=C(F)[C@H](CO)O2)cc1F
- IC50: 0.018 µM

SMILES: Cc1c(Cc2c(F)cccc2F)nc(NC2CCCC2)[nH]c1=O
- IC50: 0.03 µM

SMILES: Cc1cccnc1N1C(=O)CSC1c1c(F)cccc1F (stereo not drawn)
- IC50: 53.5 µM

SMILES: CCCCOC(=O)c1cc2c([nH]c3ccccc32)c(-c2ccc3c(n2)C(=O)C(NC(=O)CCC)=CC3=O)n1 [LAV12]
- IC50: 5.8 µM

SMILES: O=C(O)/C(O)=C/C(=O)c1ccccc1
- IC50: 25 µM

SMILES: CC(C)CN(C[C@@H](O)[C@H](Cc1ccccc1)NC(=O)O[C@H]1CCOC1)S(=O)(=O)c1ccc(N)cc1
- IC50: 0.002 µM
